Assay results taken from PMC10059905, “The Bioactivity of Xylene, Pyridine, and Pyrazole Aza Macrocycles against Three Representative Leishmania Species” (Pharmaceutics, 2023).

Experiments:
[1] = test system: L. braziliensis promastigote forms; assay: In vitro activity against promastigote forms; type: cell-based
Procedure: (§1) Three Leishmania species were studied, each one as a pathogenic agent for each clinical form: L. donovani for VL, L. infantum for CL, and L. braziliensis for ML.
(§2) In order to perform this experiment, promastigotes were harvested in 24-well microplates and different drug concentrations were added in order to reach 12.5, 25, 50, and 100 µM and maintained at 27 °C for 48 h. They were counted after that time was elapsed in a Neubauer haemocytrometric chamber.

[2] = test system: L. donovani promastigote forms; assay: In vitro activity against promastigote forms; type: cell-based
Procedure: as §1, §2

[3] = test system: L. infantum promastigote forms; assay: In vitro activity against promastigote forms; type: cell-based
Procedure: as §1, §2

[4] = test system: L. infantum amastigote forms; assay: In vitro activity against amastigote forms in J774.2 macrophages; type: cell-based
Procedure: A similar method was used for the amastigote assay. First, J774.2 macrophages were harvested in 24-well microplates with round coverslips at the bottom, where cells will attach. Once cells are fixated, they are infected with promastigotes (10 per each macrophage cell) and compounds were added to reach the same final concentrations as in the previous experiment. After one day, promastigotes transform into amastigotes and microplates are maintained for two days at 37 °C. Once that time is elapsed, coverslips are collected and fixated to a microscope slide and dyed with Giemsa. Amastigotes are then counted using a microscope from a total of 200 random macrophages.

[5] = test system: J774.2 macrophage cell line; assay: Macrophage cytotoxicity; type: cell-based; conditions: Mus musculus; J774.2 macrophages; means of three separate experiments; read-out: Macrophage Toxicity IC50
Description: Macrophages are cells naturally infected by Leishmania parasites. For that reason, they were used as host cell models, specifically the J774.2 macrophage cell line [European Collection of Authenticated Cell Cultures (ECACC) number 91051511]. Cells were used to test the cytotoxicity of the new compound (establishing IC50 via testing different drug concentrations on cells) and they were used for parasite infectivity assays.

[6] = test system: L. infantum Fe-SOD; assay: SOD inhibition assay (Beyer and Fridovich method); type: biochemical; conditions: L. infantum excreted Fe-SOD
Description: Superoxide dismutase (SOD) is a key enzyme for cell survival against oxidative stress. Host cells induce oxidative bursts to create reactive oxygen species (ROS) within parasite cells that are toxic to them. For that reason, Leishmania cells rely on SOD to counteract this defense. While vertebrate SOD is linked to a copper, zinc (Cu/Zn-SOD), or manganese atom (Mn-SOD), trypanosomatid SOD is linked to an iron atom (Fe-SOD). This difference makes SOD a perfect target for drugs: if they are able to reduce its activity, cell survival will be compromised. For testing, if drugs are able to reduce this enzymatic activity, promastigotes are largely harvested and then stressed in the same culture medium without calf serum, in order to trigger stress and make them excrete SOD. This SOD is collected and semi-purified by a method described in Martín-Montes et al. 2017 [10]. Excreted Fe-SOD was mixed with the different reagents of the Beyer and Fridovich method and measured in a UV spectrophotometer twice. The second measurement took place after 10 min under direct light and constant stirring. Commercial human SOD (Cu/Zn-SOD) (Sigma®, St. Louis, MO, USA) activity was also measured for comparison.

[7] = test system: L. infantum; assay: Metabolite excretion (1H-NMR of supernatants); type: cell-based; conditions: IC25, 72 h, vs untreated
Description: Active compounds can trigger metabolic alterations within parasite mitochondria. Those alterations can be proven by observing alterations in the excreted metabolites quantity. Trypanosomatids excrete different metabolites to the medium in order to get rid of the carbonate skeleton instead of oxidizing glucose to CO2 and water as vertebrates do. Each metabolite is produced in a certain area of the mitochondrion and by a certain enzyme, thus, it can be inferred that these particular zones or enzymes are being affected by drug action. For this experiment, cultures of each species with an initial concentration of 5 × 10^5 cells/mL were stored at 27 °C for 72 h with IC25 as the test dosage. After this time elapsed, cultures were centrifuged at 400× g for 10 min and supernatants were collected and examined by ^1H-NMR.

[8] = J774.2 Macrophage IC50/Parasite IC50

SMILES: c1cc2nc(c1)CNCCCNCCCNCCCNCCCNCCCNC2 [Py33333]
- Selectivity Index Promastigote Forms [1, 8]: 41
- IC50 ([1]; Leishmania braziliensis, 48 h, 27 °C, means of three separate experiments, read-out: Compound IC50 Promastigote Forms): 36.5 ± 1.1 µM
- Selectivity Index Promastigote Forms [2, 8]: 21
- IC50 ([2]; Leishmania donovani, 48 h, 27 °C, means of three separated experiments, read-out: Compound IC50 Promastigote Forms): 70.5 ± 5.2 µM
- Selectivity Index Promastigote Forms [3, 8]: 176
- IC50 ([3]; Leishmania infantum, 48 h, 27 °C, means of three separate experiments, read-out: Compound IC50 Promastigote Forms): 8.51 ± 0.6 µM
- Selectivity Index Amastigote Forms [4, 8]: 882
- IC50 ([4]; Leishmania infantum, in J774.2 macrophages, means of three separate experiments, read-out: Compound IC50 Amastigote Forms): 1.7 ± 0.2 µM
- IC50 [5]: 1500 ± 75.3 µM
- Fe-SOD activity inhibition (in words) [6]: no inhibition
- Acetate production and excretion variation [7]: -20.61%
- D-lactate production and excretion variation [7]: -19.58%
- L-alanine production and excretion variation [7]: -19.83%
- Pyruvate production and excretion variation [7]: -22.89%
- Succinate production and excretion variation [7]: -20.30%
